Source: EP0245669B1, “Pharmaceutical preparation for preventing damage to living cells by free radicals, or for increasing the efficacy of organic sulphur compounds, and process for increasing the life span of isolated organs” (Medopharm Arzneimittelwerk Dr. Zillich GmbH & Co., priority 1986, dated 1987)

Assays:
Mäuse = assay: Toxicity of the zinc salts used as radiation protection agents (LD50); format: in vivo
Description: In diesem Beispiel wurde die Toxizität der als Strahlenschutzmittel eingesetzten Zinksalze getestet.
Der LD₅₀-Wert betrug für das Zinkaspartat 55 mg/kg Körpergewicht, für das Zinkchlorid 24 mg/kg Körpergewicht und für das Zinksulfat 45 mg/kg Körpergewicht.

weiblichen C3H Mäusen = assay: Radiation protection: survival of mice after gamma irradiation (cobalt-60) following i.p. pretreatment; format: in vivo, Mäuse; details: for Ueberlebensrate nach Bestrahlung mit 9 Gy % / Ueberlebensrate nach Bestrahlung mit 9 Gy Anzahl: 10 min before 9 Gy; for Ueberlebensrate nach Bestrahlung mit 9 Gy Anzahl / Ueberlebensrate nach Bestrahlung mit 10 Gy Anzahl / Ueberlebensrate nach Bestrahlung mit 11 Gy Anzahl: surviving/irradiated mice; for Ueberlebensrate nach Bestrahlung mit 11 Gy % / Ueberlebensrate nach Bestrahlung mit 11 Gy Anzahl: 30 min before 11 Gy
Excerpt: In den nachfolgenden Beispielen wurde die synergistische Wirkung der durch die erfindungsgemässe Verwendung hergestellten pharmazeutischen Präparate mit organische Schwefelverbindungen enthaltenden Präparaten anhand des Strahlenschutzes getestet und es wurde auch die Strahlenschutzwirkung der Zinkionen enthaltenden Präparate mit bisher bekannten Strahlenschutzpräparaten an Mäusen getestet. Die Versuche wurden mit weiblichen C3H Mäusen (GL. Bomholtgard, Ry, Dänemark) durchgeführt, die 20 bis 22 g wogen. Die Mäuse wurden unter Bedingungen gehalten, wo sie so viel Standard-Nagetierfutter (Nafag Pellts) fressen und so viel Leitungswasser trinken können, wie sie wollten. Die Bestrahlung erfolgte mit Gammastrahlen aus einer Kobalt-60 Quelle. Es wurden unterschiedliche Bestrahlungen vorgenommen, und zwar mit 9 Gy, 10 Gy, 11 Gy, 12 Gy, 13 Gy und 14 Gy.
10 Minuten vor der Bestrahlung, 30 Minuten vor der Bestrahlung oder 120 Minuten vor der Bestrahlung wurde ein durch die erfindungsgemässe Verwendung hergestelltes synergistisch wirkendes pharmazeutisches Präparat, bzw. ein entsprechendes, Zinkionen enthaltendes Strahlenschutzpräparat oder ein aus dem Stand der Technik bekanntes Strahlenschutzpräparat zu Vergleichszwecken durch intraperitoneale Injektion verabreicht.
Bei der Gruppe der Mäuse zu Vergleichszwecken, die ohne Verabreichung eines Strahlenschutzpräparates bestrahlt wurden, erfolgte 10 Minuten vor der Bestrahlung die Verabreichung von destilliertem Wasser. Bei diesen unbehandelten Mäusen überlebten nur 50% der Tiere eine Bestrahlung von 8 Gy, d.h. der LD₅₀-Wert betrug 8 Gy.
Nach den Arbeitsweisen der vorangegangenen Beispiele 1 bis 4, wurden weitere Tests mit den genannten weiblichen Mäusen durchgeführt, und zwar unter Verwendung der angeführten Zinksalze. Die bei diesen Tests erzielten Ergebnisse sind in der nachfolgenden Tabelle I zusammengestellt. Für jede der angewandten Bestrahlungsstärken ist in der Rubrik "Anzahl" diejenige Anzahl der Mäuse angeführt, welche die Bestrahlung überlebten, geteilt durch die Gesamtzahl der Mäuse, welche bestrahlt wurden. Ein entsprechender Wert von 1/10 bedeutet also, dass von 10 bestrahlten Mäusen eine überlebt hatte. In der Spalte mit der Bezeichnung "Prozent", ist die Prozent-Ueberlebensrate angeführt. Bei einer überlebenden Maus pro 10 getesteten Mäusen beträgt diese Ueberlebensrate 10 %.
Zu Vergleichszwecken sind in der nachfolgenden Tabelle III die Ueberlebensraten von Mäusen zusammengestellt, die nach dem in Beispiel 5 beschriebenen Verfahren einer Vorbehandlung mit einem bekannten schwefelhaltigen Strahlenschutzmittel unterworfen worden waren. Orientierende Vorversuche hatten gezeigt, dass diese Strahlenschutzmittel bereits ihre Wirkung verloren hatten, wenn sie zwei Stunden vor der Einwirkung der Bestrahlung verabreicht worden waren. Die Bestrahlung wurde, wie aus der Tabelle ersichtlich ist, zwei Minuten nach der Verabreichung, in den meisten Fällen 10 Minuten nach der Verabreichung, aber auch 30 Minuten, bzw. 120 Minuten nach der Verabreichung durchgeführt. Die Werte deuten darauf hin, dass 30 Minuten nach der Verabreichung die Schutzwirkung schon wieder deutlich nachgelassen hat. Für jede Bestrahlungsstärke ist wiederum die Anzahl der Tiere angeführt, die nach 30 Tagen überlebt haben, geteilt durch die Gesamtzahl der Tiere, die behandelt und bestrahlt worden waren.
Anhand dieses Beispiels soll die synergistische Wirkung von Zinkionen und Schwefelverbindungen bezüglich eines Strahlenschutzes erläutert werden. Es wurde wieder in der gleichen Weise gearbeitet, wie in den vorangegangenen Beispielen 1 bis 3, bzw. 5, und es wurde auch die gleiche Art an weiblichen Mäusen getestet. Die Verabreichung der Zinkionen enthaltenden Lösung und der Lösung der Schwefelverbindung erfolgte entweder nacheinander oder gleichzeitig durch intraperitoneale Injektion.
In allen Fällen wurde die Ueberlebensrate 30 Tage nach der Einwirkung der Bestrahlung bestimmt.

[1] = Table II: 10 mg/kg i.p., 30 min before 10 Gy
[2] = Table II: 15 mg/kg i.p., 30 min before 10 Gy
[3] = Table II, Zinksulfat: 15 mg/kg i.p.
[4] = Table II, Zinksulfat: 15 mg/kg i.p., 10 min before 10 Gy
[5] = Table II, Zinksulfat: 30 mg/kg i.p.
[6] = Table II, Zinksulfat: 30 mg/kg i.p., 10 min before 10 Gy
[7] = Table II, Zinksulfat: 22,5 mg/kg i.p.
[8] = Table II, Zinksulfat: 22,5 mg/kg i.p., 10 min before 10 Gy

[Cl-].[Cl-].[Zn+2] [Zinkchlorid]
LD₅₀-Wert (Mäuse): 24 mg/kg Körpergewicht
Ueberlebensrate nach Bestrahlung mit 9 Gy % (weiblichen C3H Mäusen; Table II: 10 mg/kg i.p.): 20%
Ueberlebensrate nach Bestrahlung mit 9 Gy Anzahl (weiblichen C3H Mäusen; Table II: 10 mg/kg i.p.): 2/10
Ueberlebensrate nach Bestrahlung mit 10 Gy % (weiblichen C3H Mäusen; [1]): 15%
Ueberlebensrate nach Bestrahlung mit 10 Gy Anzahl (weiblichen C3H Mäusen; [1]): 3/20
Ueberlebensrate nach Bestrahlung mit 9 Gy % (weiblichen C3H Mäusen; Table II: 15 mg/kg i.p.): 30%
Ueberlebensrate nach Bestrahlung mit 9 Gy Anzahl (weiblichen C3H Mäusen; Table II: 15 mg/kg i.p.): 3/30
Ueberlebensrate nach Bestrahlung mit 10 Gy % (weiblichen C3H Mäusen; [2]): 20%
Ueberlebensrate nach Bestrahlung mit 10 Gy Anzahl (weiblichen C3H Mäusen; [2]): 4/20
Ueberlebensrate nach Bestrahlung mit 9 Gy % (weiblichen C3H Mäusen; Table II: 20 mg/kg i.p.): 10%
Ueberlebensrate nach Bestrahlung mit 9 Gy Anzahl (weiblichen C3H Mäusen; Table II: 20 mg/kg i.p.): 0/10

Zinksulfat
LD₅₀-Wert (Mäuse): 45 mg/kg Körpergewicht
Ueberlebensrate nach Bestrahlung mit 9 Gy % (weiblichen C3H Mäusen; [3]): 0%
Ueberlebensrate nach Bestrahlung mit 9 Gy Anzahl (weiblichen C3H Mäusen; [3]): 1/10
Ueberlebensrate nach Bestrahlung mit 10 Gy % (weiblichen C3H Mäusen; [4]): 22%
Ueberlebensrate nach Bestrahlung mit 10 Gy Anzahl (weiblichen C3H Mäusen; [4]): 2/9
Ueberlebensrate nach Bestrahlung mit 11 Gy % (weiblichen C3H Mäusen; [3]): 0%
Ueberlebensrate nach Bestrahlung mit 11 Gy Anzahl (weiblichen C3H Mäusen; [3]): 0/20
Ueberlebensrate nach Bestrahlung mit 9 Gy Anzahl (weiblichen C3H Mäusen; [5]): 0/10
Ueberlebensrate nach Bestrahlung mit 10 Gy % (weiblichen C3H Mäusen; [6]): 33%
Ueberlebensrate nach Bestrahlung mit 10 Gy Anzahl (weiblichen C3H Mäusen; [6]): 3/9
Ueberlebensrate nach Bestrahlung mit 11 Gy % (weiblichen C3H Mäusen; [5]): 5%
Ueberlebensrate nach Bestrahlung mit 11 Gy Anzahl (weiblichen C3H Mäusen; [5]): 1/20
Ueberlebensrate nach Bestrahlung mit 9 Gy % (weiblichen C3H Mäusen; [7]): 80%
Ueberlebensrate nach Bestrahlung mit 9 Gy Anzahl (weiblichen C3H Mäusen; [7]): 8/10
Ueberlebensrate nach Bestrahlung mit 10 Gy % (weiblichen C3H Mäusen; [8]): 33%
Ueberlebensrate nach Bestrahlung mit 10 Gy Anzahl (weiblichen C3H Mäusen; [8]): 3/9
Ueberlebensrate nach Bestrahlung mit 11 Gy % (weiblichen C3H Mäusen; [7]): 0%
Ueberlebensrate nach Bestrahlung mit 11 Gy Anzahl (weiblichen C3H Mäusen; [7]): 0/20
